{
  "source": "patent US10214779B2",
  "about": "“Method for identification of anti-HIV human miRNA mimics and miRNA inhibitors and anti-HIV pharmaceutical compounds” (CSIR, priority 2013, dated 2019)",
  "note": "Where a name gives a salt, the structure may show the parent alone. *1 amine or outer side, *2 acyl side, *3 side chain or, on linkers, in order; H or OH if unused. Where a SMILES comes first, the peptide text is derived from it. Bridges are numbered along the chain shown (N, C = ends). Roman numbers before positions name the chains, in order. [ ]: non-standard residue; d: D form. Actinocin(9to1) = Cc1c2oc3c(C)ccc(C(=O)[*:1])c3nc-2c(C(=O)[*:2])c(N)c1=O; NMeV = CN[C@H](C(=O)O)C(C)C; Sar = CNCC(=O)O",
  "data": [
    {"tested_on": "HIV (Subtype B pseudoviral strain, PSGIII) in GHOST(3) cells", "assay": "Targeted drug screen, Clearance Screen (drug after HIV infection) in GHOST(3) cells", "format": "cell-based, HIV-1", "conditions": "infection MOI 0.5 for 48 hour, then drug 24 h, screened at 100 nM, 1 uM and 10 uM", "description": "A library of 101 Food and Drug Administration (FDA) approved oncology drugs as well as a library of 192 kinase-inhibitor compounds were screened as potential anti-HIV therapeutics using the GHOST(3) reporter cell line. Drugs were screened at 3 different concentrations of 100 nM, 1 uM and 10 uM. Each library was screened in triplicate at each drug concentration and in the following 3 formats:\nThis screen format was utilised to identify drugs/compounds that were able to suppress HIV replication in host cells already infected by HIV or drugs/compounds that were able to selectively target HIV-infected cells for apoptosis. GHOST(3) cells were seeded in the wells of a 96 well plate 24 hour prior to infection with the Subtype B pseudoviral strain, PSGIII, at an MOI of 0.5. The infective media was then removed 48 hour post infection and replaced with normal culture media supplemented with a drug/compound at the appropriate concentration. Twenty-four hours post drug treatment, cells were processed for imaging as previously described.\nThis screen format was used as a control to identify drugs that were broadly cytotoxic. […] GHOST(3) cells were seeded in 96 well plates, 24 hr post seeding, drugs were added to culture medium at the required final concentration. Twenty-four hours post drug treatment cells were processed for imaging as described previously.\nSubtype B viral stocks were produced by the dual transfection of HEK293T cells with a PSGIII (Subtype B) viral backbone plasmid which lacks an envelope/packaging protein and a second plasmid expressing an HIV-BAL viral envelope protein (Subtype B). Plasmid transfections were conducted using the FuGene 6 lipid-based transfection reagent (Promega) as per the manufacturer's guidelines. Viral titres were determined using a luciferase readout-assay based on the JC53 cell line and the TCID50 calculation method described by Reed and Muench (1938). GHOST(3) cells were exposed to virions at an MOI of 0.5 for both the miRNA and targeted drug/compound screens. Cells were infected in SFM supplemented with 1× Glutamax (Infecting media) as FBS has previously been described to negatively impact the infection efficiency of HIV.\nCells were washed twice in 1×PBS before fixation with a 3.7% Formaldehyde solution for 30 minutes at room temperature. Cells were washed once with 1× PBS before the addition of Hoechst Nuclear stain (Invitrogen) at 2 uM final concentration in 1×PBS for 30 minutes at room temperature. The Hoechst staining solution was aspirated and replaced with 50 uL of 1×PBS solution before imaging.\nFour fields of view (100 um apart) were acquired from the central region of each well imaged. Images were acquired in the 405 and 488 fluorescent channels for each field of view. Wells were imaged using the 20× ewld objective on the Image Xpress Ultra automated confocal microscope system (Molecular Devices). The imaging parameters were kept constant for all replicates of both miRNA and targeted drug/compound screens.\nFeature extraction algorithms were utilized in order to extract 16 subcellular measurements from the acquired images. These 16 factors are derived from 15 descriptors previously described by Genovesio et al. 2011 to be relevant indicators of the infective state of host cells, with addition of ‘infection efficiency’ as a descriptor of the percentage of infected cells per treatment well.\nA bespoke support vector machine-learning (SVML) pattern recognition algorithm was trained to identify phenotypes of interest using the relevant control wells. […] The transfection of siCD4 and Raltegravir treatment were thus utilised in the miRNA and drug/compound screens respectively as positive controls for the inhibition of HIV-1 replication. […]", "values": [
      {"compound": "Cc1[nH]nc2ccc(-c3cncc(OC[C@@H](N)Cc4ccccc4)c3)cc12", "note": "[A-674563]", "Effect (Clearance Screen)": "Suppressed HIV^b"},
      {"compound": "N.N.[Cl][Pt][Cl]", "note": "[Cisplatin]", "Effect (Clearance Screen)": "Suppressed HIV^b"},
      {"compound": "Cc1c2oc3c(C)ccc(C(=O)N[C@@H]4C(=O)N[C@H](C(C)C)C(=O)N5CCC[C@H]5C(=O)N(C)CC(=O)N(C)[C@@H](C(C)C)C(=O)O[C@@H]4C)c3nc-2c(C(=O)N[C@@H]2C(=O)N[C@H](C(C)C)C(=O)N3CCC[C@H]3C(=O)N(C)CC(=O)N(C)[C@@H](C(C)C)C(=O)O[C@@H]2C)c(N)c1=O", "note": "[Dactinomycin] (I: T[dV]P[Sar][NMeV] / II: T[dV]P[Sar][NMeV]; ester I:1-I:C, II:1-II:C; linker I:N-II:N via Actinocin(9to1))", "Effect (Clearance Screen)": "Suppressed HIV^b"},
      {"compound": "C[C@@H](CN1CC(=O)NC(=O)C1)N1CC(=O)NC(=O)C1", "note": "[Dexrazoxane]", "Effect (Clearance Screen)": "Suppressed HIV^b"},
      {"compound": "CO[C@H]1C[C@@H]2CC[C@@H](C)[C@@](O)(O2)C(=O)C(=O)N2CCCC[C@H]2C(=O)O[C@H]([C@H](C)C[C@@H]2CC[C@@H](OCCO)[C@H](OC)C2)CC(=O)[C@H](C)/C=C(\\C)[C@@H](O)[C@@H](OC)C(=O)[C@H](C)C[C@H](C)/C=C/C=C/C=C/1C", "note": "[Everolimus]", "Effect (Clearance Screen)": "Suppressed HIV^b"},
      {"compound": "O=P1(NCCCl)OCCCN1CCCl", "note": "(centres unmarked) [Ifosfamide]", "Effect (Clearance Screen)": "Suppressed HIV^b"},
      {"compound": "CCCS(=O)(=O)Nc1ccc(F)c(C(=O)c2c[nH]c3ncc(-c4ccc(Cl)cc4)cc23)c1F", "note": "[Vemurafenib]", "Effect (Clearance Screen)": "Suppressed HIV^b"}
    ]},
    {"molecular_target": "Aurora B (Homo sapiens, UniProt Q96GD4)", "sequence (Q96GD4 whole entry)": "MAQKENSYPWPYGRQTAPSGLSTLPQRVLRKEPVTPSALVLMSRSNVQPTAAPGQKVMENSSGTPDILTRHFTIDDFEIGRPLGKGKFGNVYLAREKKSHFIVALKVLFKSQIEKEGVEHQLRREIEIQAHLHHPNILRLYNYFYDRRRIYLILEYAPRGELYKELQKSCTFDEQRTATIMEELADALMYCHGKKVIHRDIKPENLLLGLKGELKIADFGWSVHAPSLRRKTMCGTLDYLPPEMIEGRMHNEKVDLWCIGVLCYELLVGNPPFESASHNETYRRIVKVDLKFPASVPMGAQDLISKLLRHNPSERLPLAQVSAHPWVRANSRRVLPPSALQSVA", "assay": "not given", "conditions": "cited from earlier work", "units": {"IC50": "nM"}, "values": [
      {"compound": "CCN1CCN(C(=O)Cc2ccc(Nc3ncc(F)c(Nc4ccc(C(=O)Nc5ccccc5Cl)cc4)n3)cc2)CC1", "note": "[Aurora A inhibitor I]", "IC50": 3400}
    ]},
    {"tested_on": "HIV (Subtype B pseudoviral strain, PSGIII) in GHOST(3) cells", "assay": "Targeted drug screen, Phenocopy Screen (drug before HIV infection) in GHOST(3) cells", "conditions": "10 uM, added 24 hour prior to exposure to HIV", "method": "GHOST(3) cells were seeded in the wells of a 96 well plate 24 hour prior to addition of a specific oncology drug at the appropriate concentration. Twenty-four hours post drug treatment, the drug supplemented media was removed and replaced with infective media containing the Subtype B pseudoviral strain, PSGIII. Cells were infected at an MOI of 0.5. The infective media was removed 48 hour post infection and cells were processed for imaging as previously described (See Sample Preparation).\nFour fields of view (100 um apart) were acquired from the central region of each well imaged. […] Wells were imaged using the 20× ewld objective on the Image Xpress Ultra automated confocal microscope system (Molecular Devices). The imaging parameters were kept constant for all replicates of both miRNA and targeted drug/compound screens.", "values": [
      {"compound": "Cc1nnc(C(=O)NC(C)(C)c2nc(C(=O)NCc3ccc(F)cc3)c(O)c(=O)n2C)o1", "note": "[Raltegravir]", "HIV replication (positive control phenotype)": "suppressed HIV replication"}
    ]},
    {"tested_on": "HIV (Subtype B pseudoviral strain, PSGIII) in GHOST(3) cells", "assay": "Targeted drug screen, Phenocopy Screen (drug before HIV infection) in GHOST(3) cells", "conditions": "drug 24 h before infection, MOI 0.5, 48 hour; screened at 100 nM, 1 uM and 10 uM; GHOST(3) cells", "values": [
      {"compound": "O=C(NC1CCNCC1)c1[nH]ncc1NC(=O)c1c(Cl)cccc1Cl", "note": "[AT7519]", "Effect (Phenocopy Screen)": "Toxic in response"},
      {"compound": "CCN1CCN(C(=O)Cc2ccc(Nc3ncc(F)c(Nc4ccc(C(=O)Nc5ccccc5Cl)cc4)n3)cc2)CC1", "note": "[Aurora A inhibitor I]", "Effect (Phenocopy Screen)": "Toxic in response"},
      {"compound": "COC(=O)c1ccc2c(c1)NC(=O)/C2=C(\\Nc1ccc(N(C)C(=O)CN2CCN(C)CC2)cc1)c1ccccc1", "note": "[BIBF1120 (Vargatef)]", "Effect (Phenocopy Screen)": "Suppressed HIV^a"},
      {"compound": "CC1(COc2ccc3c(c2)ncn3-c2ccc3cccc(N4CCC(N)CC4)c3n2)COC1", "note": "[Crenolanib (CP-868596), Crenolanib]", "Effect (Phenocopy Screen)": "Toxic in response"},
      {"compound": "C#Cc1cccc(Nc2ncnc3cc(OCCOC)c(OCCOC)cc23)c1", "note": "[Erlotinib hydrochloride]", "Effect (Phenocopy Screen)": "Toxic in response"},
      {"compound": "O=c1[nH]c(=O)n([C@H]2C[C@H](O)[C@@H](CO)O2)cc1F", "note": "[Floxuridine]", "Effect (Phenocopy Screen)": "Toxic in response"},
      {"compound": "COc1cc2c(Oc3ccc(NC(=O)C4(C(=O)Nc5ccc(F)cc5)CC4)cc3F)ccnc2cc1OCCCN1CCOCC1", "note": "[Foretinib]", "Effect (Phenocopy Screen)": "Suppressed HIV^a"},
      {"compound": "COc1ncc(-c2ccc3nccc(-c4ccnnc4)c3c2)cc1NS(=O)(=O)c1ccc(F)cc1F", "note": "[GSK2126458]", "Effect (Phenocopy Screen)": "Suppressed HIV^a"},
      {"compound": "COc1cc2ncnc(Nc3ccc(F)c(Cl)c3)c2cc1OCCCN1CCOCC1", "note": "[Gefitinib]", "Effect (Phenocopy Screen)": "Toxic in response"},
      {"compound": "c1ccc2c(-c3cnn4cc(-c5ccc(N6CCNCC6)cc5)cnc34)ccnc2c1", "note": "[LDN193189]", "Effect (Phenocopy Screen)": "Toxic in response"},
      {"compound": "Cc1ccc(C(=O)Nc2cccc(C(F)(F)F)c2)cc1Nc1nc(-c2cccnc2)nc2c1cnn2C", "note": "[NVP-BHG712]", "Effect (Phenocopy Screen)": "Suppressed HIV^a"},
      {"compound": "Cc1ccc([N+](=O)[O-])cc1S(=O)(=O)N(C)/N=C/c1cnc2ccc(Br)cn12", "note": "[PIK-75]", "Effect (Phenocopy Screen)": "Toxic in response"},
      {"compound": "Cc1ccc(C(=O)Nc2ccc(CN3CCN(C)CC3)c(C(F)(F)F)c2)cc1C#Cc1cnc2cccnn12", "note": "[Ponatinib]", "Effect (Phenocopy Screen)": "Suppressed HIV^a"},
      {"compound": "CC(C)(C)c1cnc(CSc2cnc(NC(=O)C3CCNCC3)s2)o1", "note": "[SNS-032 (BMS-387032)]", "Effect (Phenocopy Screen)": "Toxic in response"},
      {"compound": "CN1CCN(CCOc2cc(OC3CCOCC3)c3c(Nc4c(Cl)ccc5c4OCO5)ncnc3c2)CC1", "note": "[Saracatinib]", "Effect (Phenocopy Screen)": "Suppressed HIV^a"},
      {"compound": "Cn1nnc2c(C(N)=O)ncn2c1=O", "note": "[Temozolomide]", "Effect (Phenocopy Screen)": "Suppressed HIV^a"},
      {"compound": "O=C1CCC(N2C(=O)c3ccccc3C2=O)C(=O)N1", "note": "(centres unmarked) [Thalidomide]", "Effect (Phenocopy Screen)": "Suppressed HIV^a"},
      {"compound": "CC[C@]1(O)C[C@H]2CN(CCc3c([nH]c4ccccc34)[C@@](C(=O)OC)(c3cc4c(cc3OC)N(C=O)[C@H]3[C@@](O)(C(=O)OC)[C@H](OC(C)=O)[C@]5(CC)C=CCN6CC[C@]43[C@@H]65)C2)C1", "note": "[Vincristine sulfate]", "Effect (Phenocopy Screen)": "Suppressed HIV^a"},
      {"compound": "O=C(CCCCCCC(=O)Nc1ccccc1)NO", "note": "[Vorinostat]", "Effect (Phenocopy Screen)": "Toxic in response"},
      {"compound": "C=CC(=O)Nc1cccc(Oc2nc(Nc3ccc(N4CCN(C)CC4)cc3OC)ncc2Cl)c1", "note": "[WZ4002]", "Effect (Phenocopy Screen)": "Suppressed HIV^a"}
    ]},
    {"molecular_target": "T1, Aurora A (Homo sapiens, UniProt O14965)", "T1 sequence (O14965 1-403)": "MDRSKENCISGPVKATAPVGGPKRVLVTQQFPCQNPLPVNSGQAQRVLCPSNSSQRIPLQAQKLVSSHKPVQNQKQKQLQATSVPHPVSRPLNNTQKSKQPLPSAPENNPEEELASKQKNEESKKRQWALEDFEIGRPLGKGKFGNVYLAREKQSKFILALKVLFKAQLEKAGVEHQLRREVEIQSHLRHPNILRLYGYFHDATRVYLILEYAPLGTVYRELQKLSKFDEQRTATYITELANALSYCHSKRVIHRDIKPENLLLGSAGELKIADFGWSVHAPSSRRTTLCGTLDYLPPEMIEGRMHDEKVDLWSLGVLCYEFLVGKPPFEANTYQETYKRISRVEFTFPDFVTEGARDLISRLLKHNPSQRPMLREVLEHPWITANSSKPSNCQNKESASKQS", "assay": "not given", "conditions": "Aurora A; cited from earlier work", "units": {"IC50": "nM"}, "values": [
      {"compound": "CCN1CCN(C(=O)Cc2ccc(Nc3ncc(F)c(Nc4ccc(C(=O)Nc5ccccc5Cl)cc4)n3)cc2)CC1", "note": "[Aurora A inhibitor I]", "IC50": 3.4}
    ]},
    {"molecular_target": "T1, Aurora A", "assay": "not given", "conditions": "Aurora B / Aurora A selectivity; cited from earlier work", "values": [
      {"compound": "CCN1CCN(C(=O)Cc2ccc(Nc3ncc(F)c(Nc4ccc(C(=O)Nc5ccccc5Cl)cc4)n3)cc2)CC1", "note": "[Aurora A inhibitor I]", "B/A ratio": 1000}
    ]},
    {"molecular_target": "p110γ (Homo sapiens, UniProt P48736)", "sequence (P48736 whole entry, species assumed)": "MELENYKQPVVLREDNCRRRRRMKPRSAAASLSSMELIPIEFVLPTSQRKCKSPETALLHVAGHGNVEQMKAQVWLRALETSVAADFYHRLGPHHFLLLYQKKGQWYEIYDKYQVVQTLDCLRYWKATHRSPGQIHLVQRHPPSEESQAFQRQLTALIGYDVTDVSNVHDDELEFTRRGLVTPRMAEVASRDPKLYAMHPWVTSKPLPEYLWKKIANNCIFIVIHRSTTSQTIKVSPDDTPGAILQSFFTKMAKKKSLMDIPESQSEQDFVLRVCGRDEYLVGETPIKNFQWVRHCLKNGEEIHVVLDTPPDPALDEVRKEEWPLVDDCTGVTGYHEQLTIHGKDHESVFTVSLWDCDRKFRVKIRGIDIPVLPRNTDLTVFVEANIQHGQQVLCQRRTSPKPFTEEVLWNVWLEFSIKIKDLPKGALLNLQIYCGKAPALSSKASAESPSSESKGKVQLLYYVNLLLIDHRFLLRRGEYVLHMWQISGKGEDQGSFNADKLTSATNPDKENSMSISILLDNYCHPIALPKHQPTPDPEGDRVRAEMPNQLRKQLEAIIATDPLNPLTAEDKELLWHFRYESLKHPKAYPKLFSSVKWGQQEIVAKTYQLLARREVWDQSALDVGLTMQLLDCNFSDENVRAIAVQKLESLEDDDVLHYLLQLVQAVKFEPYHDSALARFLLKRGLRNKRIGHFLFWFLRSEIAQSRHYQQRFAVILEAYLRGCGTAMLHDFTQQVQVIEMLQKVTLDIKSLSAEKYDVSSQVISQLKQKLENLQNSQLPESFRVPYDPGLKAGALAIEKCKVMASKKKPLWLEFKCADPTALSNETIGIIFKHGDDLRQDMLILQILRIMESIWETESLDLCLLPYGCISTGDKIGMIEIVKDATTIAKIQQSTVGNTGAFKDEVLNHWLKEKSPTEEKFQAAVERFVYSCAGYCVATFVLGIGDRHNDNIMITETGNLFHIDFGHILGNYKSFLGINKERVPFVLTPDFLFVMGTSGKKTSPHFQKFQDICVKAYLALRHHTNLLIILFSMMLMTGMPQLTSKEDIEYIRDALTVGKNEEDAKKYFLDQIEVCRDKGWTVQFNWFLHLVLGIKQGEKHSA", "assay": "not given", "conditions": "cited from earlier work", "units": {"IC50": "nM"}, "values": [
      {"compound": "Cc1ccc([N+](=O)[O-])cc1S(=O)(=O)N(C)/N=C/c1cnc2ccc(Br)cn12", "note": "[PIK-75]", "IC50": 76}
    ]}
  ]
}
